Each structure is given as a SMILES string.

The assay concerns the target T1, Mineralocorticoid receptor (Homo sapiens, UniProt P08235).
T1 sequence (P08235 whole entry): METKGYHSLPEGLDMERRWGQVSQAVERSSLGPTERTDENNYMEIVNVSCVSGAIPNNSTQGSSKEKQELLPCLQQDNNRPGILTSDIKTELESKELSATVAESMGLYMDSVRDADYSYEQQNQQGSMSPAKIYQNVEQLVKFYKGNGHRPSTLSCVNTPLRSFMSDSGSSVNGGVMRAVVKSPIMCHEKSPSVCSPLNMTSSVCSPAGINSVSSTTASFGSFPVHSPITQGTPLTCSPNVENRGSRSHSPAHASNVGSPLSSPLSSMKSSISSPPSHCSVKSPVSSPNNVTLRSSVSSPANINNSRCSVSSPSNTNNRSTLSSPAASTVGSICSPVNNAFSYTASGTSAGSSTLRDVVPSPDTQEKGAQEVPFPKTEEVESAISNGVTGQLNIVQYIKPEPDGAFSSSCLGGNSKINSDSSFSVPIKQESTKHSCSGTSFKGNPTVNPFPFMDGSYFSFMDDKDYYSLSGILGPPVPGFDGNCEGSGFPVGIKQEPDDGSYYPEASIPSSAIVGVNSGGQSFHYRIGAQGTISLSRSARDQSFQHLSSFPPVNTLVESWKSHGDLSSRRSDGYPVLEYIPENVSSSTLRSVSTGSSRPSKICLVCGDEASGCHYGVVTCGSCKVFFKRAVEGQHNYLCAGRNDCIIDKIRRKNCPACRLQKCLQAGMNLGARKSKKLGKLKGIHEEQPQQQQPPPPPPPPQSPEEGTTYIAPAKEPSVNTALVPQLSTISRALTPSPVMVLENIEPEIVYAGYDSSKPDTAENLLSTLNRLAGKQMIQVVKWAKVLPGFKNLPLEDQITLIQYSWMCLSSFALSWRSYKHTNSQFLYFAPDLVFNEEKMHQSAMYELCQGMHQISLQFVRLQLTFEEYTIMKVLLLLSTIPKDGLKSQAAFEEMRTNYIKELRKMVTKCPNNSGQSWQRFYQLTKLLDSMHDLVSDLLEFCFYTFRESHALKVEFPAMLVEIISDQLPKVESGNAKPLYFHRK
In words: Antagonist activity at human mineralocorticoid receptor assessed as inhibition of binding to coactivator peptide by NH Pro assay.
The term IC50 denotes the concentration that gives 50% inhibition. `C[C@H](c1ccccc1)N1C(=O)O[C@](Cc2ccccc2)(C(=O)Nc2ccc3ccccc3c2)C1=O`: the IC50 came out at 0.6 µM.

Consider `COc1cc(CNC(=O)[C@@]2(Cc3ccccc3Cl)OC(=O)N([C@H](C)c3ccccc3)C2=O)cc(OC)c1`, for which the IC50 was 0.45 µM.

With `COc1cc(CNC(=O)[C@@]2(Cc3cccc(Cl)c3)OC(=O)N([C@H](C)c3ccccc3)C2=O)cc(OC)c1`, the IC50 came to 0.75 µM.

With `C[C@H](c1ccccc1)N1C(=O)O[C@](Cc2ccccc2)(C(=O)N[C@H]2C[C@@H](c3ccccc3)C2)C1=O`, the half-maximal inhibitory concentration (IC50) is 0.65 µM.

With `COc1cc(CNC(=O)[C@@]2(Cc3cccc(F)c3)OC(=O)N([C@H](C)c3ccccc3)C2=O)cc(OC)c1`, the IC50 is 0.28 µM.

`COc1cc(CNC(=O)[C@H]2OC(=O)N(Cc3ccccc3)C2=O)cc(OC)c1`: the IC50 is more than 40 µM.

In the case of `COc1cc(CNC(=O)[C@@]2(Cc3ccc4nonc4c3)OC(=O)N([C@H](C)c3ccccc3)C2=O)cc(OC)c1`, the IC50 is more than 40 µM.

Consider `C[C@H](c1ccccc1)N1C(=O)O[C@](Cc2ccccc2)(C(=O)NCCc2ccccn2)C1=O`, for which the IC50 came out at 15 µM.

Take `COc1cc(CNC(=O)[C@@]2(Cc3ccncc3)OC(=O)N(Cc3ccccc3)C2=O)cc(OC)c1`: the IC50 was determined as 30 µM.

As to `COc1cc(CNC(=O)[C@@]2(Cc3ccccc3)OC(=O)N(Cc3ccccc3)C2=O)cc(OC)c1`, the IC50 came to 3 µM.

As for `COc1cc(CNC(=O)[C@@]2(Cc3ccccc3)NC(=O)N(Cc3ccccc3)C2=O)cc(OC)c1`, the IC50 was more than 40 µM.

Regarding `COc1cc(CNC(=O)[C@@]2(Cc3ccc(F)cc3)OC(=O)N([C@H](C)c3ccccc3)C2=O)cc(OC)c1`, the 50% inhibitory concentration (IC50) was determined as 0.2 µM.

Turning to `CC[C@H](c1ccccc1)N1C(=O)O[C@](Cc2ccccc2)(C(=O)NCc2cc(OC)cc(OC)c2)C1=O`, the half-inhibitory concentration (IC50) turned out to be 0.4 µM.

On to `COc1cc(CNC(=O)[C@@]2(Cc3ccccc3)OC(=O)N([C@H](C)c3ccc(Cl)cc3)C2=O)cc(OC)c1`, for which the IC50 came out at 0.055 µM.

On to `C[C@H](c1ccccc1)N1C(=O)O[C@](Cc2ccccc2)(C(=O)Nc2ccc(F)cc2)C1=O`, for which the IC50 worked out at 0.1 µM.

For the molecule `C[C@H](c1ccccc1)N1C(=O)O[C@](Cc2ccccc2)(C(=O)N2CCc3ccccc3C2)C1=O`, the IC50 turned out to be 0.34 µM.

As for `C[C@H](c1ccccc1)N1C(=O)O[C@](Cc2ccccc2)(C(=O)NCc2cccc3cnccc23)C1=O`, the IC50 turned out to be 3 µM.

For `COc1cc(CNC(=O)[C@@]2(Cc3ccc(Cl)cc3)OC(=O)N([C@H](C)c3ccccc3)C2=O)cc(OC)c1`, the IC50 was more than 40 µM.

Consider `COc1cc(CNC(=O)C2(Cc3ccccc3)CC(=O)N([C@H](C)c3ccccc3)C2=O)cc(OC)c1` (some centres undefined), for which the IC50 is more than 40 µM.

With `COc1cc(CNC(=O)[C@@]2(Cc3cccc4nonc34)OC(=O)N([C@H](C)c3ccccc3)C2=O)cc(OC)c1`, the IC50 is more than 40 µM.

`C[C@H](c1ccccc1)N1C(=O)N[C@](Cc2ccccc2)(C(=O)N2CCc3ccccc3C2)C1=O`: the IC50 came to 0.99 µM.

Consider `COc1cc(CNC(=O)C2(Cc3ccccc3)CN(Cc3ccccc3)C(=O)O2)cc(OC)c1` (centres undefined), for which the IC50 was more than 40 µM.

Take `COc1cc(CNC(=O)[C@@]2(Cc3ccccc3)OC(=O)N([C@H](C)c3ccc(F)cc3)C2=O)cc(OC)c1`: the IC50 was 0.037 µM.

Regarding `COc1ccc(CNC(=O)[C@@]2(Cc3ccccc3)OC(=O)N([C@H](C)c3ccccc3)C2=O)cc1`, the IC50 stood at 1 µM.

On to `COc1cccc(CNC(=O)[C@@]2(Cc3ccccc3)OC(=O)N(Cc3ccccc3)C2=O)c1`, for which the IC50 came out at 1 µM.

Turning to `C[C@H](c1ccccc1)N1C(=O)O[C@](Cc2ccccc2)(C(=O)NCCc2ccncc2)C1=O`, the IC50 came to 4 µM.

On to `C[C@H](c1ccccc1)N1C(=O)O[C@](Cc2ccccc2)(C(=O)NCc2cccnc2)C1=O`, for which the IC50 turned out to be 13 µM.

On to `C[C@H](c1ccccc1)N1C(=O)O[C@](Cc2ccccc2)(C(=O)NCc2ccncc2)C1=O`, for which the half-inhibitory concentration (IC50) was more than 40 µM.

Consider `COc1cc(CNC(=O)[C@@]2(Cc3ccccc3)OC(=O)N(C3CCCc4ccccc43)C2=O)cc(OC)c1` (some centres undefined), for which the IC50 was 0.17 µM.

As to `C[C@H](c1ccccc1)N1C(=O)O[C@](Cc2ccccc2)(C(=O)N[C@@H]2C[C@H]2c2ccccc2)C1=O`, the IC50 stood at 0.25 µM.

As to `O=C1O[C@](Cc2ccccc2)(C(=O)NCc2nccs2)C(=O)N1Cc1ccccc1`, the IC50 was more than 40 µM.

As for `C[C@H](c1ccc(F)cc1)N1C(=O)O[C@](Cc2ccccc2)(C(=O)Nc2ccc(Cl)cc2)C1=O`, the IC50 was 0.18 µM.

In the case of `COc1cc(CNC(=O)C2(Cc3ccccc3)CCN([C@H](C)c3ccccc3)C2=O)cc(OC)c1` (some centres undefined), the IC50 is more than 10 µM.

As for `COc1cc(CNC(=O)[C@@]2(Cc3ccccc3F)OC(=O)N([C@H](C)c3ccccc3)C2=O)cc(OC)c1`, the IC50 is 0.3 µM.

As to `C[C@H](c1ccccc1)N1C(=O)O[C@](Cc2ccccc2)(C(=O)Nc2ccc(C#N)cc2)C1=O`, the IC50 was 0.1 µM.

Consider `C[C@H](c1ccccc1)N1C(=O)O[C@](Cc2ccccc2)(C(=O)NCc2ccc3cnccc3c2)C1=O`, for which the IC50 amounted to 1.5 µM.

Consider `C[C@H](c1ccccc1)N1C(=O)O[C@](Cc2ccccc2)(C(=O)NC2CCCCC2)C1=O`, for which the IC50 was found to be 4 µM.

As to `C[C@H](c1ccccc1)N1C(=O)O[C@](Cc2ccccc2)(C(=O)NC2CC2)C1=O`, the IC50 stood at 2 µM.

Consider `Cc1cc(CNC(=O)[C@@]2(Cc3ccccc3)OC(=O)N([C@H](C)c3ccccc3)C2=O)on1`, for which the IC50 turned out to be 3 µM.

Take `C[C@H](c1ccccc1)N1C(=O)O[C@](Cc2ccccc2)(C(=O)NCc2cccc(S(C)(=O)=O)c2)C1=O`: the IC50 amounted to 3 µM.

For `C[C@H](c1ccccc1)N1C(=O)O[C@](Cc2ccccc2)(C(=O)NCCc2nnc[nH]2)C1=O`, the IC50 was more than 40 µM.

Regarding `C[C@H](c1ccccc1)N1C(=O)O[C@](Cc2ccccc2)(C(=O)NCc2ccccn2)C1=O`, the IC50 was 16 µM.

Turning to `C[C@H](c1ccccc1)N1C(=O)O[C@](Cc2ccccc2)(C(=O)NCc2ccc(C(F)(F)F)cc2)C1=O`, the 50% inhibitory concentration (IC50) amounted to 0.57 µM.

Take `C[C@H](c1ccccc1)N1C(=O)O[C@](Cc2ccccc2)(C(=O)NCc2ccc3ccccc3n2)C1=O`: the IC50 is 2.5 µM.

`COc1cc(CNC(=O)[C@@]2(Cc3ccccn3)OC(=O)N([C@H](C)c3ccccc3)C2=O)cc(OC)c1`: the IC50 worked out at 3 µM.

On to `C[C@H](c1ccccc1)N1C(=O)O[C@](Cc2ccccc2)(C(=O)Nc2ccccc2Cl)C1=O`, for which the IC50 turned out to be 1 µM.

Take `C[C@H](NC(=O)[C@@]1(Cc2ccccc2)OC(=O)N([C@H](C)c2ccccc2)C1=O)c1cccc(Cl)c1`: the IC50 is 2.6 µM.

Regarding `C[C@H](c1ccccc1)N1C(=O)O[C@](Cc2ccccc2)(C(=O)Nc2cccc(Cl)c2)C1=O`, the IC50 came out at 2 µM.

Consider `C[C@H](c1ccc(F)cc1)N1C(=O)O[C@](Cc2ccccc2)(C(=O)Nc2ccccc2)C1=O`, for which the IC50 came to 0.27 µM.

Turning to `COc1cc(CNC(=O)[C@@]2(Cc3ccccc3)OC(=O)N([C@@H](C)c3ccccc3)C2=O)cc(OC)c1`, the half-maximal inhibitory concentration (IC50) is 0.5 µM.

As for `C[C@H](c1ccccc1)N1C(=O)O[C@](Cc2ccccc2)(C(=O)NCCc2cn[nH]c2)C1=O`, the 50% inhibitory concentration (IC50) is more than 40 µM.

For `C[C@H](c1ccccc1)N1C(=O)O[C@](Cc2ccccc2)(C(=O)NCc2cccc(C(F)(F)F)c2)C1=O`, the IC50 was 0.5 µM.

On to `C[C@H](c1ccccc1)N1C(=O)O[C@](Cc2ccccc2)(C(=O)Nc2cccc(F)c2)C1=O`, for which the IC50 is 0.3 µM.

Turning to `CCn1cc(CNC(=O)[C@@]2(Cc3ccccc3)OC(=O)N([C@H](C)c3ccccc3)C2=O)cn1`, the IC50 was more than 10 µM.

For the molecule `COc1cc(CNC(=O)C2(Cc3ccccc3)CCN(Cc3ccccc3)C2)cc(OC)c1` (centres undefined), the IC50 is more than 40 µM.

Take `COc1ccccc1CNC(=O)[C@@]1(Cc2ccccc2)OC(=O)N([C@H](C)c2ccccc2)C1=O`: the concentration for half-maximal inhibition (IC50) was 0.5 µM.

Turning to `COc1cc(CNC(=O)C2(Cc3ccccc3)CN(Cc3ccccc3)C(=O)N2)cc(OC)c1` (centres undefined), the concentration for half-maximal inhibition (IC50) is more than 40 µM.

As for `COc1cc(CNC(=O)[C@@]2(Cc3ccc4ccccc4c3)OC(=O)N([C@H](C)c3ccccc3)C2=O)cc(OC)c1`, the IC50 is more than 40 µM.

Take `COc1cc(CNC(=O)[C@@]2(Cc3ccccc3)OC(=O)N(C(C)C)C2=O)cc(OC)c1`: the IC50 turned out to be 0.5 µM.

In the case of `COc1cc(CNC(=O)[C@@]2(Cc3ccccc3)OC(=O)N(C3CCN(C(=O)C(F)(F)F)CC3)C2=O)cc(OC)c1`, the IC50 was found to be 2.9 µM.

With `C[C@H](c1ccccc1)N1C(=O)O[C@](Cc2ccccc2)(C(=O)NCc2ccc(Cl)cc2)C1=O`, the IC50 worked out at 0.2 µM.

For `COc1cccc(CNC(=O)[C@@]2(Cc3ccccc3)OC(=O)N([C@H](C)c3ccccc3)C2=O)c1`, the IC50 was 0.3 µM.

Regarding `COc1cc(CNC(=O)[C@@]2(Cc3ccccc3)OC(=O)N([C@H](C)C3CCCCC3)C2=O)cc(OC)c1`, the IC50 was found to be 0.014 µM.

On to `C[C@H](c1ccccc1)N1C(=O)O[C@](Cc2ccccc2)(C(=O)NCc2cccc3ccnn23)C1=O`, for which the IC50 worked out at 0.3 µM.

(Values after ChEMBL document CHEMBL2407028, “Discovery of novel oxazolidinedione derivatives as potent and selective mineralocorticoid receptor antagonists” (Bioorg Med Chem Lett, 2013).)
